The values that follow come from PMC10997755, “Discovery of a small-molecule inhibitor that traps Polθ on DNA and synergizes with PARP inhibitors” (Nature Communications, 2024).

Series [1] concerns the target T1, Polθ-pol (Homo sapiens, UniProt O75417).
T1 construct: purified recombinant human Polθ-pol (comprising amino acid residues 1792–2590); made in house
T1 sequence (O75417 1792-2590): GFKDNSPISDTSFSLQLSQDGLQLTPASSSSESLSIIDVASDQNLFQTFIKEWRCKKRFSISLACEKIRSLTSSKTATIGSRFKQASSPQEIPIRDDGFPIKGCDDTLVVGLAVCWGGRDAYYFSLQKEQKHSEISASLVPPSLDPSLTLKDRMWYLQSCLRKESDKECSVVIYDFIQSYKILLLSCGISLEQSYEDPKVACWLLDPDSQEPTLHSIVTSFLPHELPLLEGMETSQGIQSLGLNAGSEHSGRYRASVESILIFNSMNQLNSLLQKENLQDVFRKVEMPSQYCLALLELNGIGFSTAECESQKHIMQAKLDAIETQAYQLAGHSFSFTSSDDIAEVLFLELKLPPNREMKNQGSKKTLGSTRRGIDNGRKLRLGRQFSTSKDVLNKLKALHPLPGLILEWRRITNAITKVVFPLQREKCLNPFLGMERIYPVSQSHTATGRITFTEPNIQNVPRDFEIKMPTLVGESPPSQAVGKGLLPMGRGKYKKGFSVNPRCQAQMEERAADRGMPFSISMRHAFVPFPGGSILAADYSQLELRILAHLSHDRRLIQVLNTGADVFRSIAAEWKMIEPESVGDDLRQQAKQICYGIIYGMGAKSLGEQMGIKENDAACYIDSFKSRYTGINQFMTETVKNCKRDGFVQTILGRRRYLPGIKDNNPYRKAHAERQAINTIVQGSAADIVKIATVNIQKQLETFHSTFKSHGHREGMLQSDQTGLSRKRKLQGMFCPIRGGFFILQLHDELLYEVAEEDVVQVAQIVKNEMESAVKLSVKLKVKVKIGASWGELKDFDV
The experiment in a line: Cy5 fluorescence Polθ-pol DNA synthesis (strand displacement) IC50 assay. Format: biochemical. To be noted: Polθ-pol DNA synthesis, Cy5 fluorescence. As for the experimental part:
The following Cy5 fluorescence assay was used to measure the ability of compounds to inhibit Polθ-pol in vitro. The fluorescent based assay was performed as follows: 60 nM of the pre-annealed primer-template containing a 5’ Cy5 fluorophore conjugated template strand (RP486-Cy5), a downstream complementary oligo conjugated with a 3’ Iowa BlackReg Dark quencher (RP343BHQRQ) and a primer strand (RP469D) was mixed with 50 uM 2'-deoxyribonucleoside triphosphates (dNTPs), 0.1 mg/mL Bovine serum albumin (BSA), 0.01% NP-40, 10% glycerol, 1 mM dithiothreitol (DTT), 10 mM MgCl2, 25 mM TrisHCl pH 7.8 in the presence of 2.5% DMSO with or without various concentrations (7-point dilution series) of Polθ-pol small-molecule inhibitors at 37 °C in a volume of 40 μL. The reactions were initiated by the addition of 5 nM of purified recombinant human Polθ-pol (comprising amino acid residues 1792–2590). The reactions were terminated by the addition of 20 mM EDTA after 18 min, and the Cy5 fluorescence intensity was measured using a CLARIOstar (BMG Labtech) plate reader. Reactions were performed in triplicate and the % inhibition at each concentration of the respective compound of Formula I was based on the mean.

Series [2] can be described thus: Metabolic stability in liver microsomes. Format: in vitro ADME. Conditions: read-out: t1/2 liver microsomes. Background: Liver microsomes are a subcellular fraction often used to study metabolism.
A further series in a line: Solubility (2% DMSO/PBS). It is filed as physicochemical. Conditions: aqueous buffer, kinetic from dmso stock.
A further series has as its system CAPAN-1 cells. The experiment in a line: Clonogenic assay. It is filed as cell-based. Conditions: Capan-1 cells, vehicle. As for the experimental part:
(§1) Cells were plated on six or twelve or twenty-four well plates. In six well plate, 1000 cells/ well of BRCA2 -/-, BRCA1 -/-, PALB2 mut and 500 cells/ well of wildtype pair was plated; In twelve well plate, 600 cells/ well of BRCA2 -/-, BRCA1 -/-, PALB2 mut and 400 cells/ well of wildtype pair was plated; In twenty-four well plate, 500 cells/ well of BRCA2 -/-, BRCA1 -/-, PALB2 mut and 300 cells/ well of wildtype pair was plated. For MEFs, 300 cells per well in six-well plate were seeded. The medium was replaced every 2 days until the colonies were ready for staining in 10–12 days. For staining: Medium was removed from plates, and cells were rinsed with PBS. Fixation was carried out with—Water: Ethanol: Acetic acid (5:4:1) for 30 min followed by staining of colonies with 0.5% crystal violet in Water: Ethanol (3:2) for 2 h at room temperature. The plates were rinsed with water and left for drying overnight at room temperature. Colonies were then counted and IC50 was calculated using results from 3 or more independent experiments. Response curves are shown as mean colony formation +/- S.E.M.
(§2) Data are expressed as mean ± SEM from at least 3 independent experiments with triplicates for each condition unless stated otherwise. When conducting comparison between two groups, two-tailed unpaired t-test was used. Significance was assumed at p < 0.05. Asterisks in the figures indicate significance, ^∗p < 0.05, ^∗∗p < 0.01, ^∗∗∗p < 0.001. Combenefit® software version 2.021 was used to perform synergy analyses for drug combinations between RTx-161 and PARPi. GraphPad Prism 9 software was used to calculate IC50.

In a further series the test system is VC8 cells. The experiment in a line: Clonogenic assay. It is filed as cell-based, Chinese hamster. Conditions: VC8 cells, vehicle. As for the experimental part: as §1, §2
Series [3] is described as follows: Colony survival, ola with or without RTX-161 (source data sheet Fig. 2 b; cell line not given). It is filed as cell-based. To be noted: vehicle.
A short description of series [4]: Colony survival, ola with or without RTX-161 (source data sheet Fig. 2 c; cell line not given). It is filed as cell-based. Conditions: ola 0.125 um, RTX-161 0 uM.
The next series concerns the target Fl-Polθ (UniProt O75417 1-2590). The series is described as follows: EcoRI endonuclease protection with unlabeled DNA trap; RTx-152, ddCTP; i+1 complex fully resistant; Endonuclease protection buffer not in the material; crystals: 0.24 M Na citrate, 18% PEG 3350, 0.1 M Bis Tris propane pH 7.5, with 1 mM MgCl2, 1 mM ddGTP, 20 mM spermine in the complex mix. To be noted: protein: recombinant; label: 32P (5'); 5' overhang 12 nt on template; 14 bp duplex.

Series [5] deals with T2, Polθ-pol (human, UniProt O75417 1792-2590).
T2 sequence: T1 sequence (O75417 1792-2590)
The series is described as follows: EcoRI endonuclease protection with unlabeled DNA trap; RTx-161, ddCTP; cleavage suppressed >10 min; Endonuclease protection buffer not in the material; crystals: 0.24 M Na citrate, 18% PEG 3350, 0.1 M Bis Tris propane pH 7.5, with 1 mM MgCl2, 1 mM ddGTP, 20 mM spermine in the complex mix. To be noted: protein: recombinant; label: 32P (5'); 5' overhang 12 nt on template; 14 bp duplex.

Series [6] concerns the target T3, PolθΔL (Polθ-pol, five loops replaced) (UniProt O75417 …, internal_change).
T3 sequence: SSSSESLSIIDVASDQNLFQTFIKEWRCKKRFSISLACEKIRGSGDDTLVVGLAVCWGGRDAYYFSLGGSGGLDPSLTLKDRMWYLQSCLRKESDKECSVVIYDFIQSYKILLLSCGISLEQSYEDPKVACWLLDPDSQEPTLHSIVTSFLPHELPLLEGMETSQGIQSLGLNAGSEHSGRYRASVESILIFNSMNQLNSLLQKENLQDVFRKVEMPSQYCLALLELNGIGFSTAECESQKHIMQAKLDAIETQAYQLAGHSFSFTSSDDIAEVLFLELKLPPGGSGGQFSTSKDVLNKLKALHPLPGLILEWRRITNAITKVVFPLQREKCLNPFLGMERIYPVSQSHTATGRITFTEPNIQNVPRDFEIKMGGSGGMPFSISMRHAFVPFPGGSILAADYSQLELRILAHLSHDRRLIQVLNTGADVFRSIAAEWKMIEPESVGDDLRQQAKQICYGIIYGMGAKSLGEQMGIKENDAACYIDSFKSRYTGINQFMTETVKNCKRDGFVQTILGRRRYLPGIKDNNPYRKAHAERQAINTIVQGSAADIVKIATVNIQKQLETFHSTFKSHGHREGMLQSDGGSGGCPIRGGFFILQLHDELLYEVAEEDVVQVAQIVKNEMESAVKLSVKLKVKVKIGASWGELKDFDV
The series is described as follows: X-ray crystallography, 3.24 Å; RTx-152, ddGTP, Mg2+; closed conformation; Endonuclease protection buffer not in the material; crystals: 0.24 M Na citrate, 18% PEG 3350, 0.1 M Bis Tris propane pH 7.5, with 1 mM MgCl2, 1 mM ddGTP, 20 mM spermine in the complex mix. To be noted: protein: recombinant; tags: 6xHis-SUMO removed with PreScission protease; 5' overhang 10 nt on template; 14 bp duplex.

Values after ≈ are worked out from the molar mass of the structure shown. Values joined by “and” are separate entries in the source; they are usually repeats but may differ in a detail not shown here. Identical values can stand only once.

For the molecule `CN(C(=O)Oc1c(Cl)cc(Cl)c2cccnc12)c1ccccc1` [MC280003], the concentration for half-maximal inhibition (IC50) (usually the concentration at which inhibition is half-maximal) at Polθ-pol [1] was found to be 0.16 µM. Also, in series [2], the half-life came out at 1.5 min. For the same molecule, the solubility – broadly, the dissolved amount per volume that the medium holds – in the series “Solubility (2% DMSO/PBS)” was 21 µM (≈ 7.29 µg/mL).

`O=C(c1cc(Cc2n[nH]c(=O)c3ccccc23)ccc1F)N1CCN(C(=O)C2CC2)CC1` [ola]: the percent suvival is on record as 35.7622% in the series with CAPAN-1 cells (ola 0.041 micro M, experiment block 1 (c0-c9)); 95.0051% in the series with CAPAN-1 cells (ola 0.041 micro M, experiment block 2 (c10-c19)); 99.322% in the series with CAPAN-1 cells (ola 0.041 micro M, experiment block 3 (c20-c29)); 20.5479% in the series with CAPAN-1 cells (ola 0.123 micro M, experiment block 1 (c0-c9)); 86.264% in the series on CAPAN-1 cells (ola 0.123 micro M, experiment block 2 (c10-c19)); 101.808% in the series on CAPAN-1 cells (ola 0.123 micro M, experiment block 3 (c20-c29)). In addition, the percent suvival in the series on CAPAN-1 cells (ola 0.37 micro M, experiment block 1 (c0-c9)) came out at 15.0785%; in the series with CAPAN-1 cells (ola 0.37 micro M, experiment block 2 (c10-c19)), 58.3758%; with CAPAN-1 cells (ola 0.37 micro M, experiment block 3 (c20-c29)), 61.807%; in the series on CAPAN-1 cells (ola 1.11 micro M, experiment block 1 (c0-c9)), 13.2577%; in the series on CAPAN-1 cells (ola 1.11 micro M, experiment block 2 (c10-c19)) it was 54.2134%; in the series on CAPAN-1 cells (ola 1.11 micro M, experiment block 3 (c20-c29)) it was 43.0496%. Besides, the percent suvival was 82.1918% and 93.3333% and 61.7978% in the series on VC8 cells (ola 1.875 nano M); 0% in the series with VC8 cells (ola 30.00 nano M); 85.0909% and 53.0303% and 63.9535% in series [3] (ola 7.9 nano M); 61.0909% in series [3] (ola 11.8 nano M); 49.2424% and 44.186% and 51.6364% in [3] (ola 17.70 nano M); 49.0909% in series [3] (ola 26.60 nano M). Further, the percent suvival in [3] (ola 40.00 nano M) is 44.7273% and 28.7879% and 31.9767%; in series [3] (ola 60.00 nano M), 38.5455%; in series [3] (ola 90.00 nano M), 15.1515% and 16.8605% and 24.3636%; in series [4], 53.6122% and 69.9422% and 40.4494%.

B1: LM3-EcoRI/LM4-EcoRI primer-template (dsDNA)
DNA 1: CGGCGAATTCGCAG
DNA 2: AGTAAGAGAACGCTGCGAATTCGCCG
Take B1: the binding result in the series with Fl-Polθ and in the series with Polθ-pol [5] was “binds” in each case.

B2: crystallization primer-template (dsDNA)
DNA 1: CGACGTCGCAGCGC
DNA 2: GCGAGACTCCGCGCTGCGACGTCG
Consider B2, for which the binding result in series [6] is listed as “binds”.
